Measurements published in patent US20100197789A1, “ANTI-OBESITY AGENT AND USE THEREOF” (National University Corporation Nagoya University, priority 2006, published 2010).

Legend:
Type in all cases: in vivo, mouse
[1] = system: POMC mRNA; assay: In situ hybridization, POMC mRNA in hypothalamic arcuate nucleus, DIO mice; details: (±)-baclofen oral 5 weeks
Protocol: (§1) A hypothalamic section with a thickness of 12 μm was prepared from the brain preserved at −80° C. by using a cryostat and stuck to a MAS coat slide and then in situ hybridization was performed. For a label of NPY mRNA and POMC mRNA probes, ^35S was used. The hypothalamic section was pretreated by using triethanolamine, ethanol and the like, and then 12 hour-hybridization was performed at 55° C. After the hybridization, the hypothalamic section was treated by washing with SSC, RNase, etc. After development to a film, the mRNA expression strength was assayed by using the NIH image.
(§2) (±)-baclofen was orally administered to DIO mice for 5 weeks according to the above method, and then the DIO mice were sacrificed. A brain was surgically removed, and changes in expression amounts of NPY mRNA and POMC mRNA in the hypothalamic arcuate nucleus were examined by using an in situ hybridization method.

[2] = system: db/^+m mice; assay: Food intake amount and body weight, 5 week-continuous oral administration, non-obese db/+m mice; details: (±)-baclofen 2.7 mg/dl in drinking water, 5 weeks
Protocol: 5 week-old male C57BL/KsJ-db/^+m mice (db/^+m mice: body weight 19 to 23 g, Japan SLC, Inc.) were purchased and individually fed in tip cages. To the db/^+m mice, normal pellet diet (CE-2) was administered under free water intake and free food intake. A body weight and a food intake amount over 24 hours were measured every day from the start of feeding. On day 3 after the start of feeding, blood was taken from an orbit after 6 hour-fasting and a blood glucose level and a blood insulin concentration were measured. The db/^+m mice were divided into two groups (10 mice per each group) so that a body weight, a 24 hour-food intake amount, a blood glucose level, and a blood insulin concentration were equal, and defined to be a control group and a baclofen treated group. After division into the groups, from day 5 after the start of feeding, (±)-baclofen was dissolved in drinking water and 5 week-continuous oral administration was started in the baclofen treated group. (±)-baclofen was dissolved in drinking water at a concentration of 2.7 mg/dl used in the high concentration treated group in the experiment of db/db mice. A food intake amount and a body weight of the db/^+m mice were measured over time, and a rectal temperature was measured 5 weeks after the start of the administration. Blood was taken after the 5-week administration of (±)-baclofen, and the db/^+m mice were sacrificed by cervical luxation.
5 week-old male C57BL/KsJ-db/db mice (db/db mice: body weight 19 to 25 g, Japan SLC, Inc.) were purchased and individually fed in tip cages. Normal pellet diet (CE-2) was administered to the db/db mice under free water intake and free food intake. A body weight and a food intake amount over 24 hours were measured every day from the start of feeding. On day 3 after the start of feeding, blood was taken from an orbit after 6 hour-fasting and a blood glucose level and a blood insulin concentration were measured. The db/db mice were divided into three groups (10 mice per each group) so that a body weight, a 24 hour-food intake amount, a blood glucose level, and a blood insulin concentration were equal and defined to be a control group, an SKF97541 treated group and a 3-APPA treated group. SKF97541 and 3-APPA were dissolved in drinking water at respective concentrations of 10×10^−6 M and 100×10^−6 M, and continuously orally administered for 5 weeks, and a food intake amount and a body weight were measured over time during the administration period. SKF97541 (10×10^−6 M) or 3-APPA (100×10^−6M) was dissolved in drinking water and orally administered also to db/^+m mice, and a food intake amount and a body weight were measured over time in the same manner.

[3] = system: DIO mice; assay: White adipose tissue weights and fat cell size, DIO mice; details: (±)-baclofen 5 mg/kg/day oral 5 weeks
Protocol: (§3) (±)-baclofen (5 mg/kg/day) was orally administered to DIO mice for 5 weeks according to the above described method, and then, blood was taken from an orbit after 6 hour-fasting, and a plasma leptin concentration and a plasma adiponectin concentration were measured. The DIO mice were sacrificed by cervical luxation after the end of the 5-week administration, and then epididymal white adipose tissues and subcutaneous white adipose tissues were surgically removed, and after measuring the weights, they were fixed in 4% formaldehyde. The epididymal white adipose tissues were cut out to prepare a section with a thickness of 8 μm and subjected to Hematoxylin-Eosin stain (H-E stain) and a form (size) of a fat cell was examined by using an image analysis system, Neurolucida (MicroBrightField Japan, Inc.).

[4] = system: NPY mRNA; assay: In situ hybridization, NPY mRNA in hypothalamic arcuate nucleus, DIO mice; details: (±)-baclofen oral 5 weeks
Protocol: as §1, §2

[5] = system: DIO mice; assay: Fasting blood glucose, HbA1c, blood insulin, plasma leptin and adiponectin after 5-week administration, DIO mice
Protocol: The blood glucose level was measured by a glucose analyzer Antisense (HORIBA, Ltd.) promptly after taking blood from an orbit. HbA1c was measured by a glycohemoglobin analyzer HLC-723 GHbV (manufactured by TOSOH Corporation) after preserving blood at −80° C.
After taking blood from an orbit by using a hematocrit tube coated with heparin, blood was centrifuged at 3500 rpm at 4° C. for 15 minutes, and plasma was preserved at −80° C. The plasma concentrations of insulin, leptin and adiponectin were measured by the ELISA method (levis insulin kit (mouse): Shibayagi Co., Ltd., Morinaga Leptin assay kit: Morinaga Institute of Biological Science, Inc., Mouse/rat adiponectin ELISA kit: OTSUKA Pharmaceutical Co., Ltd.).
(±)-baclofen (5 mg/kg/day), SKF97541 (0.3 mg/kg/day) or 3-APPA (5 mg/kg/day) was orally administered to DIO mice for 5 weeks according to the above described method, and then blood was taken from an orbit after 6 hour-fasting and a blood glucose level, an HbA1c value and a blood insulin concentration were measured.
as §3

[6] = 6 hour-fasting after 5 weeks oral, (±)-baclofen 5, SKF97541 0.3, 3-APPA 5 mg/kg/day, vs control
[7] = (±)-baclofen 5 mg/kg/day oral 5 weeks, 6 hour-fasting

## NCC(CC(=O)O)c1ccc(Cl)cc1 (racemic) [(±)-baclofen, (RS)-4-amino-3-(4-chlorophenyl)butanoic acid]
[1]
  expression of POMC mRNA in the hypothalamic arcuate nucleus: significantly increased
[2]
  body weight: did not give significant effects
  food intake amount: did not give significant effects
[3]
  weight of epididymal white adipose tissues: significantly decreased
  weight of subcutaneous white adipose tissues: significantly decreased
[3]; H-E stain
  size of a fat cell in the epididymal white adipose tissues: decreased
[4]
  expression of NPY mRNA in the hypothalamic arcuate nucleus: significantly suppressed
[5]; [6]
  fasting blood glucose level: significant decreases
  fasting blood insulin concentration: significant decreases
[5]; [7]
  plasma adiponectin concentration: significantly increased
  plasma leptin concentration: significantly decreased
[5]; after 5 weeks oral, (±)-baclofen 5, SKF97541 0.3, 3-APPA 5 mg/kg/day, vs control
  HbA1c value: significant decreases
